Assay results taken from patent US12698281B2, “Thiazole derivatives for therapeutic use” (NIMML Institute, priority 2022, dated 2026).

Key:
[1] = test system: DSS colitis model; experiment: DSS colitis model; format: in vivo, mice; settings: oral, 20 mg/kg once daily, DSS in drinking water for seven days; for proportion of CD4+ IFNγ+ cells in the colonic lamina propria: flow cytometry; for severity of disease by macroscopic scoring of the colon: score 0 to 4, relative to vehicle group
Text: Inflammation of the gastrointestinal tract can be caused by numerous factors including food antigens, infectious agents, autoimmunity, or radiation. The dextran sulfate sodium (DSS) model provides a model system where the epithelial barrier is disrupted in the distal intestine allowing for translocation of bacteria and generation of immune responses. DSS model. Mice were given DSS in drinking water for seven days. At project initiation, mice were approximately 8 weeks of age and began dosing 24 hours after being placed on DSS water. Treatments were prepared within a 0.5% methylcellulose solution. The dosage used was 20 mg/kg delivered once daily. At conclusion, colons were scored macroscopically for presence of lesions, blood, stool consistency, mucosal thickening, friability and length on a summarized score from 0 to 4. Flow cytometry. Colons were collected into RPMI/FBS buffer containing collagenase and DNase for digestion. Tissues were digested for 60 minutes under stifling at 37° C. Resultant cellular suspensions were filtered through 100 um strainers, centrifuged and washed in fresh RPMI. Following filtration, immune cells were purified by Percoll gradient of the cell-containing 40% Percoll overlayed onto 70% Percoll solution. After centrifugation, interphase was collected and washed to obtain enriched colonic lamina propria cell fractions. Cells were labeled with mixtures of extracellular and intracellular antibodies to quantify the presence of CD45+ CD3+ CD4+ CD8− IFNγ+ cells. Data was acquired using a FACS Celesta flow cytometer with FACSDiva software.

[2] = test system: CD4+ T cells; experiment: CD4+ T cell culture, CD4+ IFNγ+ cells by flow cytometry; format: cell-based, mice; settings: 24 hours, PMA and ionomycin final 6 hours, relative to vehicle treated wells
Protocol: CD4+ T cells are central to the generation of inflammation in a variety of conductions. In addition, CD4+ T cells are primary responders to the IL-18 cytokine. As such, CD4+ T cells were cultured in vitro in the presence of selected compounds to test for pharmacological activity.
CD4+ T cell culture. Spleens were excised from mice and crushed between frosted microscope slides. Cellular suspension was filtered, centrifuged and exposed to hypotonic lysis to remove red blood cells. CD4+ T cells were enriched by magnetic sorting. Cells were re-suspended in IMDM and cultured in CD3- and CD28-coated round bottom wells. Cells were treated with indicated compounds at 10 and 100 nM or vehicle for 24 hours. During the final 6 hours, cells were stimulated with phorbol myristate acetate and ionomycin. Cells were then collected and stained with antibodies to detect CD45+ CD4+ IFNγ+ cells by flow cytometry. Data was acquired using a FACS Celesta flow cytometer with FACSDiva software.

| SMILES | proportion of CD4+ IFNγ+ cells in the colonic lamina propria [1] | severity of disease by macroscopic scoring of the colon [1] | proportion of CD4+ IFNγ+ cells ([2]; 10 nM) | proportion of CD4+ IFNγ+ cells ([2]; 100 nM) |
| --- | --- | --- | --- | --- |
| COc1cc(-c2cnc(C(=O)C3CCN(C(=O)c4cnnc5ccccc45)CC3)s2)ccc1O [Compound 11, cinnolin-4-yl(4-(5-(4-hydroxy-3-methoxyphenyl)thiazole-2-carbonyl)-piperidin-1-yl)methanone] | reducing | reduced | significantly reduced | significantly reduced |
| O=C(c1ncc(-c2ncccc2F)s1)[C@@H]1CN(C(=O)c2cc(F)c(F)cn2)CCO1 [Compound 34, 4,5-difluoro-pyridin-2-yl(2-(S)-(5-(3-fluoropyridin-2-yl)thiazol-2-carbonyl)-morpholin-4-yl)methanone] | – | – | significantly reduced | significantly reduced |
| O=C(c1ncc(-c2ncccc2F)s1)[C@@H]1CN(C(=O)c2cnnc3ccccc23)CCO1 [Compound 37, cinnolin-4-yl(2-(S)-(5-(3-fluoropyridin-2-yl)thiazol-2-carbonyl)-morpholin-4-yl)methanone] | reducing | reduced | – | significantly reduced |
| O=C(c1ncc(-c2ncccc2F)s1)[C@@H]1CN(C(=O)c2cc(F)ccn2)CCO1 [Compound 40, 4-fluoro-pyridin-2-yl(2-(S)-(5-(3-fluoropyridin-2-yl)thiazol-2-carbonyl)-morpholin-4-yl)methanone] | reducing | reduced | significantly reduced | significantly reduced |
| O=C1C=C(C(=O)N2CCO[C@H](C(=O)c3ncc(-c4ccccc4F)s3)C2)NN2CC=CC12 (stereo partly drawn) [Compound 69, 2-((S)-2-(5-(2-fluorophenyl)thiazole-2-carbonyl)morpholine-4-carbonyl)-4a,7-dihydropyrrolo[1,2-b]pyridazin-4(1H)-one] | – | – | – | significantly reduced |
